The values below come from publication PMC7875911 (Frontiers in Pharmacology, 2021).

In test [1] the test system is voltage-gated ion channels (VGICs). To be noted: cited from earlier work; for inhibition of Nav and Cav channels (in words): Chuang et al., Yamamoto and Sakashita, Middleton et al., Sidach and Mintz, Xiao et al., 2005.
Test [2] has as its system Nav1.7. To be noted: cited from earlier work. From the text: Loss-of-function mutation of the SCN9A gene that codes for Nav1.7 leads to congenital insensitivity to pain ([Cox et al., 2006]), whereas SCN9A gain-of-function mutations causes paroxysmal extreme pain disorder and primary erythromelalgia ([Dib-Hajj et al., 2008]). […] Homology of VGIC voltage sensing domains, and particularly those of Nav channels, is at the crux of the development of genuinely selective Nav1.7 modulators ([Kingwell, 2019]). Given the VSD functional importance in neuronal VGICs and their structural homology, it is not surprising that VDPs target related channel families. […] Mammalian Nav and Cav α-subunits are structurally homologous but differ in their gating mechanisms ([Kubota et al., 2017]).

The test system of test [3] is animal pain models. To be noted: cited from earlier work. From the text: […]. Nav channels are structurally related to voltage-gated calcium (Cav) channels, Cav1 and Cav2. […] […].
Test [4] concerns HVA I Ca in small-diameter IB4 ^− DRG neurons. The test is described as follows: cells. How it is done: Spinal level L3–L5 DRG were removed and placed in ice-cold HEPES-buffered saline (HBS) composed of (in mM): 154 NaCl, 2.5 KCl, 1.8 CaCl2, 1.5 MgCl2, 10 HEPES, and 10 glucose (pH 7.4, 330 ± 5 mOsm). Iridectomy scissors were utilized to cut up ganglia before incubation at 37°C for 15 min in oxygenated HBS containing 5 mg ml^−1 collagenase type 2 (Worthington Biochemical Corp, Lakewood, NJ, United States) followed by 25 min in oxygenated HBS containing 1 mg ml^−1 papain (Worthington Biochemical Corp). […] After enzyme treatment, ganglia were placed in 3 ml of HBS following two room temperature HBS washes. Ganglia were then triturated through fire-polished Pasteur pipettes with decreasing bores to extract cells. Finally, the cells mixed in HBS were plated onto surface modified culture dishes (Corning Primaria™ easy grip). […] DRG cells were pre-treated with 1 μg ml^−1 Alexa Fluor 488-conjugated Bandeiraea simplicifolia IB4 (Invitrogen) for 5 min at room temperature and washed with HBS for 5 min before fluorescence was examined on the inverted microscope (Olympus, IX50) used for patch clamp recordings.
Cell size was determined from an eyepiece graticule. Whole-cell electrophysiology was conducted at room temperature (22–24°C) in culture dishes perfused with room temperature HBS. The intracellular pipette solution contained (mM): 120 CsCl, 10 HEPES, 10 EGTA, 2 CaCl2, 5 MgATP, 5 Na2GTP, 5 NaCl; pH 7.3 (CsOH); 285 ± 5 mos mol l^−1.
An EPC-9 patch-clamp amplifier and corresponding PULSE software from HEKA Electronik (Lambrecht/Pfalz, Germany) were used to make recordings. Currents were sampled at 50 kHz and recorded on a hard disk. Borosilicate glass from AM Systems, Everett, WA, United States were used for patch pipettes. The input resistance of the pipettes ranged from 2 to 4 MΩ. […] A built-in procedure of the HEKA amplifier compensated for the capacitive transient currents. A −P/6 protocol was utilized to subtract leak current online. I Ca was generated with the recording protocol which included a depolarization from a holding potential of −80 mV to 0 mV for 10 ms every 30 s. I Na was generated through a recording protocol which included a step depolarization from a holding potential of −80 mV to 0 mV for 10 ms at a frequency of 0.1 Hz. Cells were perfused with the test compound via a pressure driven perfusion system (AutoMate Scientific, United States).
All data analysis and graphs were generated in OriginPro (Origin Lab Corporation, United States). […] Activation and SSI curves were fit by the modified Boltzmann equation: I or G=1/(1+exp(Vm−V0.5/ka)) Where I is the current or G is the conductance, Vm is the pre-pulse potential, V 0.5 is the half-maximal activation potential and ka is the slope factor.
Statistical significance (p < 0.05) was determined using unpaired Student’s t-test or 1-way ANOVA followed by a Tukey multiple comparison. All data is presented as mean ± SEM (n), where n is individual cells.

Test [5] concerns P-type calcium channels. To be noted: ref Chuang et al., 1998, Olamendi-Portugal et al., 2002, Sidach and Mintz; cited from earlier work. From the text: (§1) Mammalian Nav and Cav α-subunits are structurally homologous but differ in their gating mechanisms ([Kubota et al., 2017]).
For test [6], the system named is Nav1.2 and Nav1.5. To be noted: ref Chuang et al., 1998, Olamendi-Portugal et al., 2002, Sidach and Mintz; cited from earlier work.
Source text: as §1

The test system of test [7] is T-type and L-type Cav channels. To be noted: ref Chuang et al., 1998, Olamendi-Portugal et al., 2002, Sidach and Mintz; cited from earlier work.
Source text: as §1

Test [8] relates to N-type Cav channel. To be noted: ref Chuang et al., 1998, Olamendi-Portugal et al., 2002, Sidach and Mintz; cited from earlier work.
Source text: as §1

Where [9] appears, read: ref Swartz and MacKinnon, 1995, 1998, Li-Smerin and Swartz, 2002, Bosmans et al., 2008, Bladen et al., 2014.
Where [10] appears, read: ref Kuenzi and Dale, 1996, Caterina et al., 1997, McArthur et al., 2019.

Read-outs that look alike come from different tables or passages of the source. No end group written: not given here.

As for Hanatoxin, the “inhibition of Nav and Cav channels (in words)” value (shortened to “inhibition … (in words)”) in test [1] (setting [9]) is “inhibit both Nav and Cav channels”. The “channel families acted on” value in test [1] (ref Swartz and MacKinnon, 1995, Li-Smerin and Swartz, 1998, Bosmans et al., 2008) is “Kv/Nav/Cav”.
Turning to `COc1ccc2c3c1O[C@H]1C(=O)CC[C@@]4(O)[C@@H](C2)N(C)CC[C@]314` [oxycodone, reference compound], in test [2] (opioid receptor modulators, ref Mueller et al., 2019), the “effect on Nav1.7 currents (in words)” value is on record as “did not alter Nav1.7 currents”.
With `CN1CC[C@]23c4c5ccc(O)c4O[C@H]2[C@@H](O)C=C[C@H]3[C@H]1C5` [morphine], the “antinociceptive effect in the presence of Cav1 and Cav2.2 channel inhibitors (in words)” value in test [3] (in vivo) is given as “enhanced”.
Regarding “[D-Ala^2, N-MePhe^4, Gly-ol]-Enkephalin [DAMGO, reference compound]”, in test [3] (ref Contreras et al., 1988, Barro et al., 1995), the “antinociceptive effect in the presence of Cav1 and Cav2.2 channel inhibitors (in words)” value is on record as “enhanced”. Besides, in test [4] (100 nM DAMGO applied alone, small IB4− rat DRG neurons, mean ± SEM, n = 6), the “inhibition of HVA I Ca” value worked out at 6.49 ± 1.07%.
Regarding `Oc1cc2c(cc1O)CN(C(=S)NCCc1ccc(Cl)cc1)CCC2` [capsazepine], the “channel families acted on” value in test [1] (setting [10]) is recorded as “TRPV1/Kv/Cav”.
In the case of ProTxII, the “effect in rodent models of acute nociception or inflammatory pain (in words)” value in test [3] (ref Schmalhofer et al., 2008) is recorded as “ineffective”. For the same molecule, in test [1] (ref Middleton et al., 2002, Bladen et al., 2014), the “channel families acted on” value is reported as “Nav/Cav”. In addition, the “inhibition … (in words)” value in test [1] (setting [9]) is “inhibit both Nav and Cav channels”.
A word on the inhibition: it is the drop in the measured response relative to a control, in per cent. As to `C=CCN1CC[C@]23c4c5ccc(O)c4O[C@H]2C(=O)CC[C@@]3(O)[C@H]1C5` [naloxone, reference compound], the “effect on Nav1.7 currents (in words)” value in test [2] is on record as “did not alter Nav1.7 currents”. Moreover, in test [4] (Rattus norvegicus, DRG neuron, read-out: inhibition of I Ca), the inhibition at 1 µM was 1.68 ± 0.61%.
With `Cn1nccc1-c1ccccc1Oc1ccc(S(=O)(=O)Nc2nccs2)cc1C#N` [PF-04856264], the “effect in rodent models of acute nociception or inflammatory pain (in words)” value in test [3] (small molecule, ref Deuis et al., 2017) is “ineffective”.
For the molecule “ProTxI: voltage-sensing domain (VSD) gating modifier toxin (ECRYWLGGCSAGQTCCKHLVCSRRHGWCVWDGTFS; ends and bridges not checked; cysteine pairing not given here; UniProt P83480 1-35, looked up)”, the “channel families acted on” value in test [1] (ref Middleton et al., 2002, Bosmans et al., 2008, Bladen et al., 2014, Gui et al.) is recorded as “Nav/Kv/Cav/TRPA1”. In addition, in test [1] (setting [9]), the “inhibition … (in words)” value was “inhibit both Nav and Cav channels”.
In the case of `COc1cc(CNC(=O)CCCC/C=C/C(C)C)ccc1O` [capsaicin], the “channel families acted on” value in test [1] (setting [10]) is reported as “TRPV1/Kv/Cav”.
Turning to `NC1=N[C@H](O)[C@H]2[C@H]3O[C@]4(O)O[C@@H]([C@@H](O)[C@@]2(N1)[C@@H]4O)[C@]3(O)CO` [tetrodotoxin], the “channel families acted on” value in test [1] is “Nav/Cav”.

B1: Kurtoxin: scorpion peptide, gating modifier toxin (peptide, UniProt P58910 1-63, looked up)
Kurtoxin: KIDGYPVDYWNCKRICWYNNKYCNDLCKGLKADSGYCWGWTLSCYCQGLPDNARIKRSGRCRA
modifications: ends and bridges not checked
Take B1: the “channel families acted on” value in test [1] (ref Chuang et al., 1998) was “Nav/Cav”. For the same molecule, the “inhibition … (in words)” value in test [1] (setting [9]) is “inhibit both Nav and Cav channels”. The “effect on deactivation (in words)” value in test [5] is reported as “slows deactivation”; in test [7] it was “accelerates deactivation”. Besides, the “effect on inactivation of Nav1.2 and Nav1.5 (in words)” value in test [6] is on record as “slows inactivation”. Besides, the “effect on N-type Cav channel kinetics (in words)” value in test [8] is on record as “little to no alteration”.
